Reference: ChEMBL document CHEMBL1131152, “In vitro and in vivo activities of oligodeoxynucleotide-based thrombin inhibitors containing neutral formacetal linkages” (J Med Chem, 1998)

molecular target: Prothrombin (Homo sapiens) (UniProt P00734); test: Relative prothrombin time was determined as the activity of the test ODN (oligodeoxynucleotide) relative to that of GS-522

Relative PT	SMILES
1.1	Cc1cn([C@H]2C[C@H](OCOC[C@H]3O[C@@H](n4cc(C)c(=O)[nH]c4=O)C[C@@H]3OP(=O)(O)OC[C@H]3O[C@@H](n4cnc5c(=O)[nH]c(=N)[nH]c54)C[C@@H]3OP(=O)(O)OC[C@H]3O[C@@H](n4cnc5c(=O)nc(N)[nH]c54)C[C@@H]3O)[C@@H](COP(=O)(O)O[C@H]3C[C@H](n4cnc5c(=O)[nH]c(=N)[nH]c54)O[C@@H]3COP(=O)(O)O[C@H]3C[C@H](n4cnc5c(=O)nc(N)[nH]c54)O[C@@H]3COP(=O)(O)O[C@H]3C[C@H](n4cc(C)c(=O)[nH]c4=O)O[C@@H]3COP(=O)(O)O[C@H]3C[C@H](n4cnc5c(=O)[nH]c(=N)[nH]c54)O[C@@H]3COP(=O)(O)O[C@H]3C[C@H](n4cc(C)c(=O)[nH]c4=O)O[C@@H]3COP(=O)(O)O[C@H]3C[C@H](n4cnc5c(=O)[nH]c(=N)[nH]c54)O[C@@H]3COP(=O)(O)O[C@H]3C[C@H](n4cnc5c(=O)nc(N)[nH]c54)O[C@@H]3COP(=O)(O)O[C@H]3C[C@H](n4cc(C)c(=O)[nH]c4=O)O[C@@H]3COP(=O)(O)O[C@H]3C[C@H](n4cc(C)c(=O)[nH]c4=O)O[C@@H]3COP(=O)(O)O[C@H]3C[C@H](n4cnc5c(=O)nc(N)[nH]c54)O[C@@H]3COP(=O)(O)O[C@H]3C[C@H](n4cnc5c(=O)nc(N)[nH]c54)O[C@@H]3COP(=O)(O)O)O2)c(=O)[nH]c1=O
0.7	Cc1cn([C@H]2C[C@H](OCOC[C@H]3O[C@@H](n4cnc5c(=O)nc(N)[nH]c54)C[C@@H]3OP(=O)(O)OC[C@H]3O[C@@H](n4cnc5c(=O)[nH]c(=N)[nH]c54)C[C@@H]3OP(=O)(O)OC[C@H]3O[C@@H](n4cc(C)c(=O)[nH]c4=O)C[C@@H]3OP(=O)(O)OC[C@H]3O[C@@H](n4cnc5c(=O)[nH]c(=N)[nH]c54)C[C@@H]3OP(=O)(O)OC[C@H]3O[C@@H](n4cc(C)c(=O)[nH]c4=O)C[C@@H]3OCOC[C@H]3O[C@@H](n4cnc5c(=O)nc(N)[nH]c54)C[C@@H]3OP(=O)(O)OC[C@H]3O[C@@H](n4cnc5c(=O)[nH]c(=N)[nH]c54)C[C@@H]3OP(=O)(O)OC[C@H]3O[C@@H](n4cc(C)c(=O)[nH]c4=O)C[C@@H]3OP(=O)(O)OC[C@H]3O[C@@H](n4cc(C)c(=O)[nH]c4=O)C[C@@H]3OP(=O)(O)OC[C@H]3O[C@@H](n4cnc5c(=O)[nH]c(=N)[nH]c54)C[C@@H]3OP(=O)(O)OC[C@H]3O[C@@H](n4cnc5c(=O)nc(N)[nH]c54)C[C@@H]3O)[C@@H](COP(=O)(O)O[C@H]3C[C@H](n4cc(C)c(=O)[nH]c4=O)O[C@@H]3COP(=O)(O)O[C@H]3C[C@H](n4cnc5c(=O)[nH]c(=N)[nH]c54)O[C@@H]3COP(=O)(O)O[C@H]3C[C@H](n4cnc5c(=O)[nH]c(=N)[nH]c54)O[C@@H]3COP(=O)(O)O)O2)c(=O)[nH]c1=O
1.1	Cc1cn([C@H]2C[C@H](OCOC[C@H]3O[C@@H](n4cnc5c(=O)nc(N)[nH]c54)C[C@@H]3OP(=O)(O)OC[C@H]3O[C@@H](n4cnc5c(=O)[nH]c(=N)[nH]c54)C[C@@H]3OP(=O)(O)OC[C@H]3O[C@@H](n4cc(C)c(=O)[nH]c4=O)C[C@@H]3OCOC[C@H]3O[C@@H](n4cc(C)c(=O)[nH]c4=O)C[C@@H]3OP(=O)(O)OC[C@H]3O[C@@H](n4cnc5c(=O)[nH]c(=N)[nH]c54)C[C@@H]3OP(=O)(O)OC[C@H]3O[C@@H](n4cnc5c(=O)nc(N)[nH]c54)C[C@@H]3O)[C@@H](COP(=O)(O)O[C@H]3C[C@H](n4cnc5c(O)nc(=N)[nH]c54)O[C@@H]3COP(=O)(O)O[C@H]3C[C@H](n4cc(C)c(=O)[nH]c4=O)O[C@@H]3COP(=O)(O)O[C@H]3C[C@H](n4cnc5c(=O)[nH]c(=N)[nH]c54)O[C@@H]3COP(=O)(O)O[C@H]3C[C@H](n4cnc5c(=O)nc(N)[nH]c54)O[C@@H]3COP(=O)(O)O[C@H]3C[C@H](n4cc(C)c(=O)[nH]c4=O)O[C@@H]3COCO[C@H]3C[C@H](n4cc(C)c(=O)[nH]c4=O)O[C@@H]3COP(=O)(O)O[C@H]3C[C@H](n4cnc5c(=O)nc(N)[nH]c54)O[C@@H]3COP(=O)(O)O[C@H]3C[C@H](n4cnc5c(=O)[nH]c(=N)[nH]c54)O[C@@H]3COP(=O)(O)O)O2)c(=O)[nH]c1=O
0.8	Cc1cn([C@H]2C[C@H](OP(=O)(O)OC[C@H]3O[C@@H](n4cc(C)c(=O)[nH]c4=O)C[C@@H]3OP(=O)(O)OC[C@H]3O[C@@H](n4cnc5c(=O)[nH]c(=N)[nH]c54)C[C@@H]3OP(=O)(O)OC[C@H]3O[C@@H](n4cnc5c(=O)nc(N)[nH]c54)C[C@@H]3O)[C@@H](COCO[C@H]3C[C@H](n4cnc5c(=O)[nH]c(=N)[nH]c54)O[C@@H]3COP(=O)(O)O[C@H]3C[C@H](n4cnc5c(=O)nc(N)[nH]c54)O[C@@H]3COP(=O)(O)O[C@H]3C[C@H](n4cc(C)c(=O)[nH]c4=O)O[C@@H]3COP(=O)(O)O[C@H]3C[C@H](n4cnc5c(=O)nc(N)[nH]c54)O[C@@H]3COP(=O)(O)O[C@H]3C[C@H](n4cc(C)c(=O)[nH]c4=O)O[C@@H]3COP(=O)(O)O[C@H]3C[C@H](n4cnc5c(=O)[nH]c(=N)[nH]c54)O[C@@H]3COP(=O)(O)O[C@H]3C[C@H](n4cnc5c(=O)nc(N)[nH]c54)O[C@@H]3COP(=O)(O)O[C@H]3C[C@H](n4cc(C)c(=O)[nH]c4=O)O[C@@H]3COP(=O)(O)O[C@H]3C[C@H](n4cc(C)c(=O)[nH]c4=O)O[C@@H]3COP(=O)(O)O[C@H]3C[C@H](n4cnc5c(=O)[nH]c(=N)[nH]c54)O[C@@H]3COP(=O)(O)O[C@H]3C[C@H](n4cnc5c(=O)nc(N)[nH]c54)O[C@@H]3COP(=O)(O)O)O2)c(=O)[nH]c1=O
0.8	Cc1cn([C@H]2C[C@H](OP(=O)(O)OC[C@H]3O[C@@H](n4cnc5c(=O)nc(N)[nH]c54)C[C@@H]3OCOC[C@H]3O[C@@H](n4cnc5c(=O)[nH]c(=N)[nH]c54)C[C@@H]3OP(=O)(O)OC[C@H]3O[C@@H](n4cc(C)c(=O)[nH]c4=O)C[C@@H]3OP(=O)(O)OC[C@H]3O[C@@H](n4cnc5c(=O)nc(N)[nH]c54)C[C@@H]3OP(=O)(O)OC[C@H]3O[C@@H](n4cc(C)c(=O)[nH]c4=O)C[C@@H]3OP(=O)(O)OC[C@H]3O[C@@H](n4cnc5c(=O)nc(N)[nH]c54)C[C@@H]3OP(=O)(O)OC[C@H]3O[C@@H](n4cnc5c(=O)[nH]c(=N)[nH]c54)C[C@@H]3OP(=O)(O)OC[C@H]3O[C@@H](n4cc(C)c(=O)[nH]c4=O)C[C@@H]3OP(=O)(O)OC[C@H]3O[C@@H](n4cc(C)c(=O)[nH]c4=O)C[C@@H]3OP(=O)(O)OC[C@H]3O[C@@H](n4cnc5c(=O)[nH]c(=N)[nH]c54)C[C@@H]3OP(=O)(O)OC[C@H]3O[C@@H](n4cnc5c(=O)nc(N)[nH]c54)C[C@@H]3O)[C@@H](COP(=O)(O)O[C@H]3C[C@H](n4cc(C)c(=O)[nH]c4=O)O[C@@H]3COP(=O)(O)O[C@H]3C[C@H](n4cnc5c(=O)[nH]c(=N)[nH]c54)O[C@@H]3COP(=O)(O)O[C@H]3C[C@H](n4cnc5c(=O)nc(N)[nH]c54)O[C@@H]3COP(=O)(O)O)O2)c(=O)[nH]c1=O
